These results are taken from patent US8629275B2, “AHCY hydrolase inhibitors for treatment of hyper homocysteinemia” (Merck Sharp & Dohme Corp., priority 2008, dated 2014).

For assay [1] the following is noted: mice; Shea et al, Neuromolecular Medicine 2004; cited from earlier work.
The target in a further assay is T1, AHCY (Homo sapiens, UniProt P23526).
T1 construct: endogenous in cells; host or cells: HEK293 and/or SH-SY5Y
T1 sequence (P23526 2-432 limits assumed): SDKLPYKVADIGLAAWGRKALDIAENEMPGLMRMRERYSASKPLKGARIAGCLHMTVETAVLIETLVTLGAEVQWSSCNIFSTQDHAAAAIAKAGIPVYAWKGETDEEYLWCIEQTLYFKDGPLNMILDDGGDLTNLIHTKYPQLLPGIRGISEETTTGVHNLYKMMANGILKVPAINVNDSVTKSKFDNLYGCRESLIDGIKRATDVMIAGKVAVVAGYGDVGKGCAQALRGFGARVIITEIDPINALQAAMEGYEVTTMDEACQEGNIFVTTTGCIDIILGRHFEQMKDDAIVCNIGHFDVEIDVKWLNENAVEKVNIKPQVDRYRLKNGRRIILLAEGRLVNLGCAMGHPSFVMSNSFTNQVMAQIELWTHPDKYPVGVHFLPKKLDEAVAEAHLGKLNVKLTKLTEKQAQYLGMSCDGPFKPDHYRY
Briefly: Cell-based assay of AHCY inhibition (secreted homocysteine). The following applies: secreted homocysteine from HEK293 and/or SH-SY5Y cells, 72 hrs; Example 1 average of n=4, Example 2 n=1.

The target of assay [2] is recombinant expressed human or mouse AHCY enzyme (UniProt P23526). Briefly: In vitro AHCY activity assay (ThioGlo1 fluorescence, hydrolysis of SAH). The assay is classed as biochemical. The following applies: Example 1 average of n=3, Example 2 n=1.
Procedure: In vitro AHCY Activity Assay
The AHCY enzyme assay is based on the principle of fluorescence emission following incubation of a reactive dye with the products of an AHCY catalyzed reaction. The reactive dye (Thioglo1) binds homocysteine through its thiol-containing moiety. The products of the AHCY catalyzed reaction, adenosine and homocysteine, are produced from the hydrolysis of SAH (s-adenosylhomocysteine) through AHCY's hydrolase activity.
The reaction is optimized in 96-, 384-, 1536- and 3456-assay plate formats, with recombinant expressed human or mouse AHCY enzyme. When run under initial velocity conditions, the assay is suitable for IC50 and % inhibition calculations.
• 1) ThioGlo1 (catalog 595501, Calbiochem); 100 mM in DMSO • 2) SAH (catalog A-9384, Sigma); 4.69 mM with 0.06 N HCl • 3) Aristeromycin (catalog A-0928, Sigma); 100 mM in DMSO • 4) NAD (catalog 43410, Sigma); 14.5 mM in water • 5) EDTA in 500 mM pH 8 (catalog BP2482-100, Fisher) • 6) DTT stock 200 mM in water • 7) AHCY enzyme (diluted with 100 mM tris pH7.5) Dilutions Immediately Prior to use: • 1. SAH 750 μM (10×) (dilute with 100 mM Tris pH 7.5) • 2. Aristeromycin (10×) (dilute to 1 mM with 100 mM Tris pH7.5) • 3. ThioGlo1 (10×) (dilute to 100 μM in Tris pH7.5) • 4. AHCY assay buffer (3.3×): 3 μM DTT, 150 μM NAD, 3 mM EDTA Protocol: As per 96-Assay Plate Well • 1. […] Read plate (Ex 380 Em 510)

In the case of `Nc1nccc2c1ncn2[C@@H]1O[C@H](CO)[C@@H](O)[C@H]1O` [3-deaza-adenosine], the “oxidative damage and cognitive impairment” value in assay [1] is “prevent oxidative damage and cognitive impairment”. In the case of `Nc1ncc(F)c2c1ncn2[C@@H]1CC[C@@H](O)[C@H]1O` [Example 1, (1R,2S,3R)-3-(4-amino-7-fluoro-1H-imidazo[4,5-c]pyridin-1-yl)cyclopentane-1,2-diol], the IC50 (in general, the concentration that inhibits the measured activity by half) against AHCY turned out to be 1.5 nM; in assay [2], 42 nM. In the same order, the values of `Nc1ncc(F)c2c1ncn2[C@@H]1C=C[C@@H](O)[C@H]1O` [Example 2, (1S, 2R, 5R)-5-(4-amino-7-fluoro-1H-imidazo[4,5-c]pyridin-1-yl)cyclopent-3-ene-1,2-diol] are 28.2 nM and 17900 nM.
